Among the targets are CLK4 (Homo sapiens, UniProt Q9HAZ1); EPHA1 (Homo sapiens, UniProt P21709); EPHA6 (Homo sapiens, UniProt Q9UF33); EPHB3 (Homo sapiens, UniProt P54753); FGFR1 (Homo sapiens, UniProt P11362); FRK (Homo sapiens, UniProt P42685); GRK4 (Homo sapiens, UniProt P32298); KIT(V559D,T670I) (Homo sapiens, UniProt P10721, T670I/V559D); MELK (Homo sapiens, UniProt Q14680); PIKFYVE (Homo sapiens, UniProt Q9Y2I7); TAOK3 (Homo sapiens, UniProt Q9H2K8); WNK1 (Homo sapiens, UniProt Q9H4A3).

Assay in all cases: biochemical
What all share (set-up): DiscoverX KINOMEscan scanMAX competition binding panel, single concentration, percent of control; remaining binding: dose or concentration left out as unconfirmed
What all share (details): KINOMEscan binding, percent of control; read-out: Table S4_SCANMAX REPORT - related to Fig. 1 / Percent Control

The target in the next assay is T1, AMPK-alpha2 (Homo sapiens, UniProt P54646).
T1 construct: gene PRKAA2

In another assay the target is T2, ERK4 (Homo sapiens, UniProt P31152).
T2 construct: gene MAPK4

A further assay concerns the target T3, LKB1 (Homo sapiens, UniProt Q15831).
T3 construct: gene STK11

A further assay deals with T4, OSR1 (Homo sapiens, UniProt O95747).
T4 construct: gene OXSR1

For assay [1], the target named is T5, RSK3(Kin.Dom.2-C-terminal) (Homo sapiens, UniProt Q15349).
T5 construct: gene RPS6KA2; Kin.Dom.2-C-terminal

The target in a further assay is T6, YANK2 (Homo sapiens, UniProt Q9NY57).
T6 construct: gene STK32B
T6 sequence (Q9NY57 whole entry): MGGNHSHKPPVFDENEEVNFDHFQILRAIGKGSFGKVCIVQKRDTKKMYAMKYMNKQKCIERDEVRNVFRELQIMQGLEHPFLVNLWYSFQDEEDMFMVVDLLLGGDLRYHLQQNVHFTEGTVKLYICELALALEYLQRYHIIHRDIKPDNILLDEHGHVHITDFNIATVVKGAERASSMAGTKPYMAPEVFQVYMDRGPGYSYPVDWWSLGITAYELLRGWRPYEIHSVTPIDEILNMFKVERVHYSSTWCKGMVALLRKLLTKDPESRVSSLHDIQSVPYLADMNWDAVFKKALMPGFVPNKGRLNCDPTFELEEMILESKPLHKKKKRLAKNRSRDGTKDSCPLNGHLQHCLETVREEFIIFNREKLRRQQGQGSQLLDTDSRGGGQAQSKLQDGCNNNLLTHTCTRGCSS

Each structure is given as a SMILES string.

Chain of EPHA6 (Q9UF33 whole entry): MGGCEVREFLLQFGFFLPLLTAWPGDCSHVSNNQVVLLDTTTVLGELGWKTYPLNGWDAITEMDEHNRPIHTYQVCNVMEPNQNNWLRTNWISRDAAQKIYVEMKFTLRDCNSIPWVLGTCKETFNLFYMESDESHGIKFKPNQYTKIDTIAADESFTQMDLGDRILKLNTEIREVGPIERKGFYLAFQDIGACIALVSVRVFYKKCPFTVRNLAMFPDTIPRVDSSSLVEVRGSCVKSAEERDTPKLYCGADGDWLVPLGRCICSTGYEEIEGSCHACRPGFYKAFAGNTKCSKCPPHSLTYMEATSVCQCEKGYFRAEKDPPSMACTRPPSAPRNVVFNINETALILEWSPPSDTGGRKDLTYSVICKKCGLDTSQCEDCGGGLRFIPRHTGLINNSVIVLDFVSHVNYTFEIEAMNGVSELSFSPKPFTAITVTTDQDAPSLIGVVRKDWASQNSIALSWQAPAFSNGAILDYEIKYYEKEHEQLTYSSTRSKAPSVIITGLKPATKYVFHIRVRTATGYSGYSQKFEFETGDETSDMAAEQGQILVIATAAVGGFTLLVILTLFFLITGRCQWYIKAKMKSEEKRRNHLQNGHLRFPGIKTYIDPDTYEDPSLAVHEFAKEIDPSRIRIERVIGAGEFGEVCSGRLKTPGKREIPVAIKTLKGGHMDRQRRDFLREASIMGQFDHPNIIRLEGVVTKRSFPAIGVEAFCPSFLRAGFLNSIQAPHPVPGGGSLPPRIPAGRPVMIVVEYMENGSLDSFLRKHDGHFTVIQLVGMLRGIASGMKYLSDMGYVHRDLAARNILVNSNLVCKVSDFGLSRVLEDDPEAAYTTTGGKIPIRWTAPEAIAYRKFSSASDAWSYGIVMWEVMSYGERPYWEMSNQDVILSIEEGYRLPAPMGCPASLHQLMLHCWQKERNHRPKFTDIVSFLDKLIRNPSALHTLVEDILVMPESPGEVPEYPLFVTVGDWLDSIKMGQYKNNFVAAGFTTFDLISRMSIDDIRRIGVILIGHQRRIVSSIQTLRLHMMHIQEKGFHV
Chain of GRK4 (P32298 whole entry): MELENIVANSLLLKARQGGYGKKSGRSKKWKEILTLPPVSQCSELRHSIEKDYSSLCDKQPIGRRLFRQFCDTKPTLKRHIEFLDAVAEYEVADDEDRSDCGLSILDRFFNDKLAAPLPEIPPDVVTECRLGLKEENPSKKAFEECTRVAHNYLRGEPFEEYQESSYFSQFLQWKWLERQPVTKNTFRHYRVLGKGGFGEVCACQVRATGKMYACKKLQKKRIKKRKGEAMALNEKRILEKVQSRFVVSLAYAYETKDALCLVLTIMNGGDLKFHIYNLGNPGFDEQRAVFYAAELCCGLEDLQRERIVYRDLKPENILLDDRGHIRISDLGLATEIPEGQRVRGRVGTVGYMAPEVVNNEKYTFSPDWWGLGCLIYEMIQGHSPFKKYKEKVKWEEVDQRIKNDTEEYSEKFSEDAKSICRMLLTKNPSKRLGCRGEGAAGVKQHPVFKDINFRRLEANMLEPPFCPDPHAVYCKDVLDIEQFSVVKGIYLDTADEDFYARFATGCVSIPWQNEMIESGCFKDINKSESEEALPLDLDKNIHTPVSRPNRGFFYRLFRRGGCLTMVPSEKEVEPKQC
Chain of FGFR1 (P11362 whole entry): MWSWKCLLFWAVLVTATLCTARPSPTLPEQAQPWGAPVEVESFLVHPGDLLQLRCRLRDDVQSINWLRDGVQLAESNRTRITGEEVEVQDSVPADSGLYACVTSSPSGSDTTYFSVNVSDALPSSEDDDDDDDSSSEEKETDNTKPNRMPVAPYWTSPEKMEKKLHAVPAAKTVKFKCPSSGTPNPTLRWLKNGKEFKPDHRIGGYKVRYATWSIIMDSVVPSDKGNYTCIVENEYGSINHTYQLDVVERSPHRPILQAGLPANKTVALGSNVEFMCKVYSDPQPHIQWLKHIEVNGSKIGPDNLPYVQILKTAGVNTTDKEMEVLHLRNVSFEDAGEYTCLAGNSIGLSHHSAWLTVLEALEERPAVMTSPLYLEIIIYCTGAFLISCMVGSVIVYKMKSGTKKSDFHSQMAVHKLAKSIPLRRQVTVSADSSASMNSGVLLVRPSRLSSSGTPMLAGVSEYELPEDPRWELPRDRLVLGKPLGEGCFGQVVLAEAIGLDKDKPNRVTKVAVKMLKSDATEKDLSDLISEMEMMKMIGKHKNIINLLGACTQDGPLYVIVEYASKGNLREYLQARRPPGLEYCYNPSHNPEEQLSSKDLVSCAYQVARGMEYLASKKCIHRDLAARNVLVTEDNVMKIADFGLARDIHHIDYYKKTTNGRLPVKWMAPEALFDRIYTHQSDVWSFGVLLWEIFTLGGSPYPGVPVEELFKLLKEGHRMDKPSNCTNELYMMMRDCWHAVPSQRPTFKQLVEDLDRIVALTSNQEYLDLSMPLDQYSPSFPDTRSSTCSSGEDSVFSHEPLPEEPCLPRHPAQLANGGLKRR
Chain of CLK4 (Q9HAZ1 whole entry): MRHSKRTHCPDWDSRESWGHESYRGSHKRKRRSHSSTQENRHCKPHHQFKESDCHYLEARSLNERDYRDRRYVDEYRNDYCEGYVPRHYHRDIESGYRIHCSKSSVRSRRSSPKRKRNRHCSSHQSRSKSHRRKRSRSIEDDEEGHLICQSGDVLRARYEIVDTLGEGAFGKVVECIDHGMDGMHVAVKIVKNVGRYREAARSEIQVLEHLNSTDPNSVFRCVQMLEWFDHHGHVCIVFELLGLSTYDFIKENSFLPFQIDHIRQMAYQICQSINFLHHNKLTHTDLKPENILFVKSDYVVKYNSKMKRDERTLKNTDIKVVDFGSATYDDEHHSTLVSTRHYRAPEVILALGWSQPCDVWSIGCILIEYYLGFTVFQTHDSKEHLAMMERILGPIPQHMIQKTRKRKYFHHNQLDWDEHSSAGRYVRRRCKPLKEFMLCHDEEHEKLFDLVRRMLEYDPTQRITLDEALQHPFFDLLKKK
Chain of EPHB3 (P54753 whole entry): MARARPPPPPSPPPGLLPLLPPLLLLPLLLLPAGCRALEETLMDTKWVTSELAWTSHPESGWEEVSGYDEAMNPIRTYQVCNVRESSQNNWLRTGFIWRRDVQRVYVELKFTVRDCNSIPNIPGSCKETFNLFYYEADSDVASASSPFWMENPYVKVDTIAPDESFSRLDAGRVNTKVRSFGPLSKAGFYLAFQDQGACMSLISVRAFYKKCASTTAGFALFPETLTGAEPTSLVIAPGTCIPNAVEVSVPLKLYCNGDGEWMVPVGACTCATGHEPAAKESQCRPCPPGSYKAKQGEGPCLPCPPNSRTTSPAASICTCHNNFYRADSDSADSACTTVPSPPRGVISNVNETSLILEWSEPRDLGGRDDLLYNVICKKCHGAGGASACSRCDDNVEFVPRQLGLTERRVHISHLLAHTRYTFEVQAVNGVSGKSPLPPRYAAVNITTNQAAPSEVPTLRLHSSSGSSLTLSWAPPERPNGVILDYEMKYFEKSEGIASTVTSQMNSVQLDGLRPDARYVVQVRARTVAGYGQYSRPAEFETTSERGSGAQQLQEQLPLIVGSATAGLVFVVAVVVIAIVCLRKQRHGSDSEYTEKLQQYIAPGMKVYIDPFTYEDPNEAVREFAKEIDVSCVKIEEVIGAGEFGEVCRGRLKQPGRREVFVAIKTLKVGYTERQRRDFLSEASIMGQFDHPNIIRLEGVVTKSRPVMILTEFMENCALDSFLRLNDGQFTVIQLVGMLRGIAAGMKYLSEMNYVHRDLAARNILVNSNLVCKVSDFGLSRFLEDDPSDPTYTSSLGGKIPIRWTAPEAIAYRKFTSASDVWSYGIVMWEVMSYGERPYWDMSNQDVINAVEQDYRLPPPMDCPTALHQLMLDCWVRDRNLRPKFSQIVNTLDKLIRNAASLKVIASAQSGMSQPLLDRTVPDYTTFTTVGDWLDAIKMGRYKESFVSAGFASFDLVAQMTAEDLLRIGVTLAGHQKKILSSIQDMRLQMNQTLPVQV
Chain of FRK (P42685 whole entry): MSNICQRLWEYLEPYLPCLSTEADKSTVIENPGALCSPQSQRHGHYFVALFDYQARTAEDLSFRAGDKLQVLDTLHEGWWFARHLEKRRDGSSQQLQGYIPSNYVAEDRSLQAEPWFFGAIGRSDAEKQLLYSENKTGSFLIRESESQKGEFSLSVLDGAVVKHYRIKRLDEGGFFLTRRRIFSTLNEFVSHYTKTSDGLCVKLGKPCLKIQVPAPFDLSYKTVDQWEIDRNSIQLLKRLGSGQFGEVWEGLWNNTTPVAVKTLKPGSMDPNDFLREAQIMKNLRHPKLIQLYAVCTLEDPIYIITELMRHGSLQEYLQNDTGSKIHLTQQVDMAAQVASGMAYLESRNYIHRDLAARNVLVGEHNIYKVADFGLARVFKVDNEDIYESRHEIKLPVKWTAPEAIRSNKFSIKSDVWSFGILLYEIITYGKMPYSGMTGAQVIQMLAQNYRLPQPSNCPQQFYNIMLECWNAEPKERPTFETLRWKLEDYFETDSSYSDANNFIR

As to `c1ccc2c(c1)Sc1ccccc1N2CCN1CCOCC1` [J54], the remaining binding on AMPK-alpha2, at CLK4, at EPHA1, at EPHA6, on EPHB3 and at ERK4 was 100% throughout. Besides, the remaining binding at FGFR1 turned out to be 94%; at FRK, 100%; on GRK4, 54%; on KIT(V559D,T670I) it was 100%; on LKB1 it was 89%; on MELK it was 84%. Further, the remaining binding was 100% at OSR1; 94% on PIKFYVE; 97% in [1]; 100% on TAOK3; 94% on WNK1; 100% at YANK2.
